From PMC8728392, “Synthesis, Anticancer Assessment, and Molecular Docking of Novel Chalcone-Thienopyrimidine Derivatives in HepG2 and MCF-7 Cell Lines” (Oxidative Medicine and Cellular Longevity, 2021)

Experiments:
[1] = tested on: human breast cancer cell line (MCF-7); assay: MTT assay, cytotoxicity; assay type: cell-based; settings: for survival percentage (mean ± SEM): MCF-7, 24 hours
Procedure: Cancer cell lines were manipulated according to the method described by Sigounas et al.. In this method, the cell lines were grown as adherent monolayers in T75 flasks with Dulbecco's modified Eagle's medium (DMEM) supplemented with 10% Fetal Bovine Serum (FBS), 2 mM L-glutamine, and 1% streptomycin/penicillin. The cells were left to grow in a CO2 incubator at 37°C, 5% CO2, and 95% humidity until their confluence.
The 3-[4,5-dimethylthiazol-2-yl]-2,5-diphenyltetrazolium bromide (MTT) colorimetric assay was used to examine the sensitivity of cells to tested compounds (as anticancer drugs), as previously described. This assay depends on the production of a purple formazan derivative from the yellow tetrazolium bromide (MTT) by mitochondrial succinate dehydrogenase in viable cells. The percentage of cell survival was calculated as follows: (1) Percentage of survival=O.D.treated cells/O.D.control cells×100.
For preliminary screening of the cytotoxicity of synthesized compounds 3a-g, cells exposed to DMSO were used as a control. Plotting the relationship between the survival score and the compound concentration and calculating the IC50 (the concentration required to inhibit cell viability by 50%) were performed for each test compound according to Li et al. in comparison with the reference standard anticancer agent, 5-FU.
The 3-[4,5-dimethylthiazol-2-yl]-2,5-diphenyltetrazolium bromide (MTT) colorimetric assay was used to examine the sensitivity of cells to tested compounds (as anticancer drugs), as previously described by Hussein et al. (2017). This assay depend on the production of a purple formazan derivative from the yellow tetrazolium bromide (MTT) by mitochondrial succinate dehydrogenase in viable cells. Briefly, after harvesting the cells with 0.25% trypsin, the cell lines were suspended in DMEM. Cells were seeded in 96-well microtiter plates at a concentration of 5×10^4 cell/well in a fresh medium and left to attach to the plates for 24 h before treatment with the tested compounds 3a-g. Test compounds were dissolved in dimethyl sulfoxide (DMSO). After 24 hours, cells were incubated with the appropriate concentration ranges of compounds, the wells were diluted to […] with fresh medium and incubation was continued for 24 hours. Three wells were used for each concentration. After 24 hours of treatment, 20 μl of MTT solution (5mg/ml) was added and subsequently the plates were further incubated for 4 hours to allow the viable cells to biotransform the yellow-colored MTT into purple formazan crystals. The optical density (O.D.) of each well was measured spectrophotometrically at […] with an enzyme-linked immunosorbent assay (ELISA) microplate reader (BioTek, EL-800, USA). The percentage of cell survival was calculated as follows: […]

HepG2 cell line = assay: Cell cycle analysis (PI, flow cytometry); assay type: cell-based, human
Procedure: (§1) Cell cycle analysis was performed to decide if the newly synthesized thienopyrimidine derivatives arrested the cell cycle and at what phase of the cell cycle, the HepG2 and MCF-7 cell lines were arrested. The experiments were performed as previously described by Tolba et al.. HepG2 and MCF-7 cell lines were seeded and incubated with the tested compounds in 6-well plates. After incubation overnight, the cells were washed twice with ice-cold phosphate-buffered saline (PBS), detached by EDTA-trypsinization from the plates, harvested by centrifugation, fixed in ice-cold 70% (v/v) ethanol, and washed with phosphate-buffered saline (PBS, pH 7.2 ± 0.2). The cells were resuspended with 0.1 mg/ml RNase, stained with […] propidium iodide (PI), and analyzed by flow cytometry using a FACSCalibur flow cytometer (BD Biosciences, San Jose, CA). CellQuest software (Becton Dickinson) was used to determine the cell cycle distributions after incubation with 5-FU or tested compounds. Exposure of HepG2 and MCF-7 cell lines to these compounds could interfere with the normal cell cycle distribution.

MCF-7 cell line = assay: Cell cycle analysis (PI, flow cytometry); assay type: cell-based, human; settings: compared with control cells
Procedure: as §1

HepG2 cells = assay: Annexin V-FITC/PI apoptotic assay; assay type: cell-based, human
Excerpt: Annexin V-fluorescein isothiocyanate (FITC) and counterstaining with propidium iodide (PI) using the Annexin V-FITC/PI apoptosis detection kit (BD Biosciences, San Diego, CA) were employed to distinguish early and late apoptotic cells according to the manufacturer's directions. Annexin V conjugated with fluorescein isothiocyanate was used to quantify the loss of phosphatidylserine asymmetry in cell membranes involved in apoptosis, and propidium iodide can distinguish between early apoptosis, late apoptotic, and necrotic cells. Analyses were achieved by using a FACSCalibur flow cytometer (BD Biosciences, San Jose, CA).
Cells were gently washed twice with PBS accompanied by tryptic digestion (0.25% trypsin/EDTA) and washed yet again with PBS. All the cells including the floating and adherent ones were harvested, pooled and stained with […] in 1× binding buffer for 15 min at room temperature in the dark. Analyses were achieved by FACS Calibur flow cytometer (BD Biosciences, San Jose, CA).

MDA in MCF-7 cells = assay: Lipid peroxidation (MDA); assay type: cell-based, human; settings: IC50, in comparison to untreated cells
Procedure: MDA is described as a lipid peroxidation product. It reacts with thiobarbituric acid to produce a red substance that is absorbed at 535 nm.
MDA has been described as the product of lipid peroxidation that reacts with thiobarbituric acid to produce a red substance that is absorbed at 535 nm (Kei et al., 1978). HepG2 and MCF7 cells treated with synthetic thienopyrimidine were mixed with 2 ml of solution of trichloroacetic acid (TCA), thiobarbituric acid (TBA) and hydrochloric acid (HCl) and mixed thoroughly, and then heated in a boiling water bath. during 15 minutes. After cooling, the precipitate was removed by centrifugation at 3000 rpm for 10 minutes. Relative to the reagent blank, which measures the absorbance at 535 nm, the blank reagent contains all reagents except cells. The MDA concentration is expressed as nmol/ml using a calibration curve.

[2] = tested on: GR activity in MCF-7 cells; assay: Glutathione reductase (GR) activity; assay type: cell-based, human; settings: IC50, in comparison to untreated cells
Procedure: The activity of GR was determined by the decrease in absorbance caused by the oxidation of NADPH during the reduction of oxidized GSH [41].
The activity of GR was determined by the decrease in absorbance caused by the oxidation of NADPH during the reduction of oxidized GSH (Malik et al., 2019). HepG2 or MCF-7cells were pre-treated with newly synthesized chalcone-thienopyrimidines derivatives for 24 hours, harvested and the pellet was re-suspended in twice the volume of protein extraction buffer (PEB). Cells were then vortexed vigorously for 2 min, repeating the cycle three times. Homogenate was then centrifuged at 10,000 rpm for 10 min. The supernatant was collected and was used to quantitate antioxidant enzyme GR using standard protocols. All determinations were made in at least five replicates and the values given are the average of these replicates.

| Compound | survival percentage (mean ± SEM) ([1]; 4.8828125 μg/ml) | survival percentage (mean ± SEM) ([1]; 9.765625 μg/ml) | survival percentage (mean ± SEM) ([1]; 19.53125 μg/ml) | survival percentage (mean ± SEM) ([1]; 39.0625 μg/ml) | survival percentage (mean ± SEM) ([1]; 78.125 μg/ml) | survival percentage (mean ± SEM) ([1]; 156.25 μg/ml) | survival percentage (mean ± SEM) ([1]; 312.5 μg/ml) | survival percentage (mean ± SEM) ([1]; 625 μg/ml) | survival percentage (mean ± SEM) ([1]; 1250 μg/ml) | survival percentage (mean ± SEM) ([1]; 2500 μg/ml) | survival percentage (mean ± SEM) ([1]; 5000 μg/ml) | survival percentage (mean ± SEM) ([1]; 10000 μg/ml) | fold more effective anticancer activity than 5-FU ([1]; MCF-7 cell line) | cell population in pre-G1 phases compared with control cells (HepG2 cell line) | G1 and pre-G1 arrest (MCF-7 cell line) | early and late apoptosis (HepG2 cells) | MDA (MDA in MCF-7 cells) | GR activity [2] | melting point | other results |
| --- | --- | --- | --- | --- | --- | --- | --- | --- | --- | --- | --- | --- | --- | --- | --- | --- | --- | --- | --- | --- |
| CCOC(=O)Cn1c(SCC(=O)Nc2ccc(C(=O)/C=C\c3cccc([N+](=O)[O-])c3)cc2)nc2sc3c(c2c1=O)CC(C)(C)NC3(C)C [Compound 3g, Ethyl (Z)-2-(6,6,8,8-Tetramethyl-2-((2-((4-(3-(3-nitrophenyl)acryloyl)-phenyl)amino)-2-oxoethyl)thio)-4-oxo-5,6,7,8-tetrahydropyrido[4′,3′:4,5]thieno[2,3-d]pyrimidin-3(4H)-yl)acetate] | 105.3 ± 0.032% | 98.2 ± 0.023% | 96.4 ± 0.003% | 81.0 ± 0.009% | 28.0 ± 0.015% | 20.1 ± 0.003% | 19.4 ± 0.004% | 19.9 ± 0.001% | 19.9 ± 0.002% | 19.0 ± 0.001% | 18.9 ± 0.001% | 15.3 ± 0.000% | 350.4 fold | significant increase | significantly (P < 0.05) induced G1 and pre-G1 arrest | significantly exhibited early and late apoptosis | significant elevation | significant decline | 194 to 195 °C | cell population in G2/M compared with control cells (HepG2 cell line): substantial increase |
| CCOC(=O)Cn1c(SCC(=O)Nc2ccc(C(=O)/C=C\c3cc(OC)c(OC)c(OC)c3)cc2)nc2sc3c(c2c1=O)CCN(C(=O)OCC)C3 [Compound 3b, Ethyl (Z)-3-(2-Ethoxy-2-oxoethyl)-4-oxo-2-((2-oxo-2-((4-(3-(3,4,5 trimethoxyphenyl)acryloyl)phenyl)amino)ethyl)thio)-3,5,6,8 tetra-hydropyrido[4′,3′:4,5]thieno[2,3-d]pyrimidine-7(4H)-carboxylate] | 104.9 ± 0.016% | 102.6 ± 0.015% | 83.2 ± 0.022% | 31.8 ± 0.009% | 27.7 ± 0.026% | 21.3 ± 0.013% | 21.0 ± 0.001% | 20.3 ± 0.002% | 20.3 ± 0.001% | 20.1 ± 0.001% | 19.7 ± 0.002% | 17.3 ± 0.001% | 846.5 fold | significant increase | significantly (P < 0.05) induced G1 and pre-G1 arrest | significantly exhibited early and late apoptosis | significant elevation | significant decline | 172 to 173 °C | times more activity compared to compound 3g ([1]; MCF-7 cell line): ~ 2.5 times |
